Our source for the Ki values is BindingDB's records for doi:10.1021/jm021079g (Academy of Sciences of The Czech Republic, 2003).

In this assay the target is T1, Dimer of Gag-Pol polyprotein [501-599] (Human immunodeficiency virus 1, UniProt P03367).
T1 construct: 501-599
Nature of the assay: Protease Inhibition Assay. The settings on record: pH 4.7. Here is the method:
Inhibition constants were determined by a spectrophotometric assay with the chromogenic peptide substrate.

One may read the Ki as the dissociation constant of the complex between target and ligand, obtained from inhibition or displacement. Low values mean a stronger hold on the target, high ones a looser hold on the target.

SMILES strings stand for the structures.

With `CC(C)(C)OC(=O)N[C@@H](Cc1ccccc1)[C@@H](O)CN[C@@H](Cc1ccccc1)C(=O)N[C@@H](CCC(N)=O)C(=O)N[C@@H](Cc1ccccc1)C(N)=O`, the Ki was determined as 33 nM.

For `CC(C)(C)OC(=O)N[C@@H](Cc1ccccc1)[C@@H](O)CN[C@@H](Cc1ccccc1)C(=O)N[C@@H](CCC(=O)O)C(=O)N[C@@H](Cc1ccccc1)C(N)=O`, the inhibition constant (Ki) is 0.15 nM.
